Test: Henry solubility constant Hcp at 298.15 K (mol/(m3 Pa))
Details: reference: Bamford et al. (2002)

Row | SMILES | Henry solubility constant Hcp
1 | Clc1cc(-c2cc(Cl)c(Cl)c(Cl)c2Cl)c(Cl)c(Cl)c1Cl [2,2',3,3',4,4',5,5'-octachlorobiphenyl] | 0.1
2 | Clc1ccc(-c2c(Cl)c(Cl)cc(Cl)c2Cl)c(Cl)c1Cl [2,2',3,3',4,5',6'-heptachlorobiphenyl] | 0.021
3 | Clc1cc(-c2c(Cl)ccc(Cl)c2Cl)c(Cl)c(Cl)c1Cl [2,2',3,3',4,5,6'-heptachlorobiphenyl] | 0.022
4 | Clc1cccc(-c2ccc(Cl)c(Cl)c2Cl)c1Cl [2,2',3,3',4-pentachlorobiphenyl] | 0.027
5 | Clc1cc(Cl)c(Cl)c(-c2c(Cl)ccc(Cl)c2Cl)c1 [2,2',3,3',5,6'-hexachlorobiphenyl] | 0.015
6 | Clc1cc(Cl)c(Cl)c(-c2cccc(Cl)c2Cl)c1 [2,2',3,3',5-pentachlorobiphenyl] | 0.023
7 | Clc1ccc(Cl)c(-c2c(Cl)ccc(Cl)c2Cl)c1Cl [2,2',3,3',6,6'-hexachlorobiphenyl] | 0.009
8 | Clc1cccc(-c2cccc(Cl)c2Cl)c1Cl [2,2',3,3'-tetrachlorobiphenyl] | 0.036
9 | Clc1cc(Cl)c(-c2c(Cl)ccc(Cl)c2Cl)cc1Cl [2,2',3,4',5',6-hexachlorobiphenyl] | 0.015
10 | Clc1cc(Cl)c(-c2cccc(Cl)c2Cl)cc1Cl [2,2',3,4',5'-pentachlorobiphenyl] | 0.023
11 | Clc1cc(Cl)c(Cl)c(-c2cc(Cl)c(Cl)cc2Cl)c1 [2,2',3,4',5,5'-hexachlorobiphenyl] | 0.017
12 | Clc1ccc(-c2c(Cl)ccc(Cl)c2Cl)c(Cl)c1 [2,2',3,4',6-pentachlorobiphenyl] | 0.019
13 | Clc1ccc(-c2cccc(Cl)c2Cl)c(Cl)c1 [2,2',3,4'-tetrachlorobiphenyl] | 0.028
14 | Clc1cc(Cl)c(-c2c(Cl)cc(Cl)c(Cl)c2Cl)cc1Cl [2,2',3,4,4',5',6-heptachlorobiphenyl] | 0.017
15 | Clc1cc(Cl)c(-c2cc(Cl)c(Cl)c(Cl)c2Cl)c(Cl)c1 [2,2',3,4,4',5,6'-heptachlorobiphenyl] | 0.017
16 | Clc1ccc(-c2cc(Cl)c(Cl)c(Cl)c2Cl)c(Cl)c1 [2,2',3,4,4',5-hexachlorobiphenyl] | 0.045
17 | Clc1ccc(-c2ccc(Cl)c(Cl)c2Cl)c(Cl)c1 [2,2',3,4,4'-pentachlorobiphenyl] | 0.023
18 | Clc1ccc(Cl)c(-c2cc(Cl)c(Cl)c(Cl)c2Cl)c1 [2,2',3,4,5,5'-hexachlorobiphenyl] | 0.02
19 | Clc1ccc(-c2c(Cl)cccc2Cl)c(Cl)c1Cl [2,2',3,4,6'-pentachlorobiphenyl] | 0.022
20 | Clc1ccc(Cl)c(-c2c(Cl)ccc(Cl)c2Cl)c1 [2,2',3,5',6-pentachlorobiphenyl] | 0.021
21 | Clc1cccc(-c2c(Cl)cccc2Cl)c1Cl [2,2',3,6'-tetrachlorobiphenyl] | 0.03
22 | Clc1ccccc1-c1cccc(Cl)c1Cl [2,2',3-trichlorobiphenyl] | 0.042
23 | Clc1ccc(-c2cc(Cl)c(Cl)cc2Cl)c(Cl)c1 [2,2',4,4',5-pentachlorobiphenyl] | 0.021
24 | Clc1ccc(-c2cc(Cl)ccc2Cl)c(Cl)c1 [2,2',4,5'-tetrachlorobiphenyl] | 0.027
25 | Clc1cc(Cl)c(-c2ccccc2Cl)cc1Cl [2,2',4,5-tetrachlorobiphenyl] | 0.027
26 | Clc1ccc(-c2ccccc2Cl)c(Cl)c1 [2,2',4-trichlorobiphenyl] | 0.033

Row | SMILES | Henry solubility constant Hcp
27 | Clc1ccccc1-c1c(Cl)cccc1Cl [2,2',6-trichlorobiphenyl] | 0.033
28 | Clc1ccccc1-c1ccccc1Cl [2,2'-dichlorobiphenyl] | 0.046
29 | Clc1ccc(Cl)c(-c2ccc(Cl)c(Cl)c2)c1 [2,3',4',5-tetrachlorobiphenyl] | 0.033
30 | Clc1ccc(-c2ccccc2Cl)cc1Cl [2,3',4'-trichlorobiphenyl] | 0.036
31 | Clc1cc(Cl)c(-c2cc(Cl)c(Cl)c(Cl)c2)cc1Cl [2,3',4,4',5,5'-hexachlorobiphenyl] | 0.027
32 | Clc1cc(Cl)c(-c2ccc(Cl)c(Cl)c2)c(Cl)c1 [2,3',4,4',6-pentachlorobiphenyl] | 0.015
33 | Clc1cccc(-c2ccc(Cl)cc2Cl)c1 [2,3',4-trichlorobiphenyl] | 0.033
34 | Clc1cccc(-c2cc(Cl)ccc2Cl)c1 [2,3',5-trichlorobiphenyl] | 0.035
35 | Clc1cccc(-c2ccccc2Cl)c1 [2,3'-dichlorobiphenyl] | 0.043
36 | Clc1cc(-c2c(Cl)c(Cl)cc(Cl)c2Cl)cc(Cl)c1Cl [2,3,3',4',5,5',6-heptachlorobiphenyl] | 0.032
37 | Clc1cc(Cl)c(Cl)c(-c2ccc(Cl)c(Cl)c2)c1 [2,3,3',4',5-pentachlorobiphenyl] | 0.043
38 | Clc1ccc(-c2c(Cl)ccc(Cl)c2Cl)cc1Cl [2,3,3',4',6-pentachlorobiphenyl] | 0.023
39 | Clc1ccc(-c2cccc(Cl)c2Cl)cc1Cl [2,3,3',4'-tetrachlorobiphenyl] | 0.038
40 | Clc1cc(-c2ccc(Cl)c(Cl)c2Cl)cc(Cl)c1Cl [2,3,3',4,4',5'-hexachlorobiphenyl] | 0.034
41 | Clc1ccc(-c2cc(Cl)c(Cl)c(Cl)c2Cl)cc1Cl [2,3,3',4,4',5-hexachlorobiphenyl] | 0.029
42 | Clc1ccc(-c2c(Cl)cc(Cl)c(Cl)c2Cl)cc1Cl [2,3,3',4,4',6-hexachlorobiphenyl] | 0.021
43 | Clc1ccc(-c2cc(Cl)cc(Cl)c2Cl)cc1 [2,3,4',5-tetrachlorobiphenyl] | 0.025
44 | Clc1ccc(-c2c(Cl)ccc(Cl)c2Cl)cc1 [2,3,4',6-tetrachlorobiphenyl] | 0.025
45 | Clc1ccc(Cl)c(-c2ccccc2)c1Cl [2,3,6-trichlorobiphenyl] | 0.033
46 | Clc1cccc(-c2ccccc2)c1Cl [2,3-dichlorobiphenyl] | 0.043
47 | Clc1ccc(-c2cc(Cl)ccc2Cl)cc1 [2,4',5-trichlorobiphenyl] | 0.034
48 | Clc1ccc(-c2ccccc2)c(Cl)c1 [2,4-dichlorobiphenyl] | 0.037
49 | Clc1cc(-c2cc(Cl)c(Cl)c(Cl)c2)cc(Cl)c1Cl [3,3',4,4',5,5'-hexachlorobiphenyl] | 0.047
50 | Clc1ccc(-c2cccc(Cl)c2)cc1 [3,4'-dichlorobiphenyl] | 0.049
51 | Clc1ccc(-c2cc(Cl)c(Cl)c(Cl)c2)cc1 [3,4,4',5-tetrachlorobiphenyl] | 0.041
